Results: article PMC10525924, “Engineering and Purification of Microcin C7 Variants Resistant to Trypsin and Analysis of Their Biological Activity” (Antibiotics, 2023)
Where a SMILES comes first, the peptide text is derived from it.

Tests used:
Yej^+rimL^− strain [1] = experiment: organism not typed; assay type: cell-based; settings: for bacteriostatic activity after trypsin treatment, Yej^+rimL^− / Diameters of the inhibition zones, Trypsin-Untreated Group, Yej^+rimL^− / Diameters of the inhibition zones, Trypsin-Treated Group, Yej^+rimL^−: agar diffusion; for bacteriostatic activity after trypsin treatment, Yej^+rimL^− / Diameters of the inhibition zones, Trypsin-Treated Group, Yej^+rimL^−: supernatant treated with trypsin 50 μg/mL, 37 °C, 3 h; for Diameters of the inhibition zones, Trypsin-Untreated Group, Yej^+rimL^−: 200 μL fermentation supernatant, 1 × 10^5 CFU/mL, 4 °C 1 h then 37 °C 24 h, chloramphenicol 100 μL of 0.25 μg/mL; for Diameters of the inhibition zones, Trypsin-Untreated Group, Yej^+rimL^− / Diameters of the inhibition zones, Trypsin-Treated Group, Yej^+rimL^−: dash = no zone; for Diameters of the inhibition zones, Trypsin-Treated Group, Yej^+rimL^−: pH 6.8, 37 °C 24 h
Source text: To analyze the antimicrobial ability of the variants, we measured the inhibition zones of all 21 variants by the agar diffusion method. The peptide moiety of McC was recognized by a YejABEf-peptide transporter. The rimL contains an acetyltransferase domain homologous to MccE which can detoxify and provide resistance to McC [17]. The overexpression of the YejABEF gene cluster and rimL gene knockout made the strain hypersensitive to McC. Therefore, the Yej^+rimL^− strain was selected as the sensitive indicator bacterial strain.
(§1) The pH was adjusted to 6.8.
(§2) The fermentation supernatants and pure products were used to characterize the bacteriostatic effects of McC variants by the agar diffusion and microdilution methods. Yej^+rimL^− and E. coli K88 indicator bacteria were applied. The serotype of E. coli K88 was O149:K91, K88ac, a clinically isolated strain, and provided by the College of Veterinary Medicine, China Agricultural University. The indicated bacteria were diluted to 1 × 10^5 CFU/mL and added to plate medium cooled to 50 °C. Two hundred microliters of supernatants were added to each dish, and diffusion was performed at 4 °C for 1 h. After incubation at 37 °C for 24 h, the diameters of the inhibition zones were determined. One hundred microliters of 0.25 μg/mL chloramphenicol was used as a control. The MICs of the pure McC variants were determined by microdilution in a sterilized 96-well microplate. The McC variants were serially diluted 2 times in 96-well microplates with LB medium. The concentrations of the McC variants ranged from 0.125 to 100 µg/mL. Each well was inoculated with 10 μL of overnight bacterial culture at a concentration of 1.0 × 10^5 CFU/mL and incubated at 37 °C for 24 h. A microplate reader was used to automatically observe changes in absorbance at 600 nm in order to monitor bacterial growth. A positive control group (including inoculated medium) and a negative control group (with medium only) were included. The MIC was determined as the lowest concentration of McC variant that inhibited bacterial growth (preventing an increase in the absorbance reading). All tests were performed in triplicate.

Yej^+rimL^− strain [2] = assay type: cell-based; settings: HPLC-purified variants; microdilution in LB, 96-well; 0.125 to 100 µg/mL; 1.0 × 10^5 CFU/mL; 37 °C 24 h; absorbance 600 nm; triplicate
Protocol: To accurately characterize the bacteriostatic abilities of the variants, the MICs of the pure McC variants toward the McCsensitive strain Yej^+rimL^− were determined. The MICs of all variants were lower than that of wild-type McC. From smallest to largest MIC, the above five variants were in the following order: R2A, R2T, R2Q, R2S, and R2H. […] Although the diameter of the inhibitory zone of R2M was smaller than those of the above five variants, the bacteriostatic ability of R2M was second only to R2T/R2Q, and the MIC was 50 μg/mL.
as §2

[3] = Remaining amount by RP-HPLC after pepsin treatment; assay type: in vitro ADME; settings: isolated enzyme pepsin; pepsin treated for 3 h; read-out RP-HPLC; Table S2
Protocol: (§3) To test whether the variants were tolerant to trypsin or other digestive enzymes, the amount of the remaining McC and its analogues remaining was determined by RP-HPLC after trypsin, pepsin, and chymotrypsin treated for 3 h (Table S2), and the inhibition zones of trypsin-treated variants were tested using the same method (Table 2).

[4] = Remaining amount by RP-HPLC after chymotrypsin treatment; assay type: in vitro ADME; settings: isolated enzyme chymotrypsin; chymotrypsin treated for 3 h; read-out RP-HPLC; Table S2
Protocol: as §3

[5] = HPLC retention time according to hydrophobicity; assay type: physicochemical; settings: chromatographic, C18 5 μm 9.4 × 250 mm; A 0.1% trichloroacetic acid, B 0.1% trichloroacetic acid with 90% acetonitrile; linear 5% B to 50% B; 1 mL/min; 35 °C; 280 nm; varies according to hydrophobicity
Protocol: To find the separation peaks of the variants, wildtype McC and blank control fermentation broth samples were tested by HPLC. The separation peaks with obvious differences (those with retention times of 11 min and 17 min) were purified and the antimicrobial activity was determined. […] Therefore, the molecular weight was further analyzed by mass spectrometry, and the separation peak at approximately 17 min was confirmed to be that of the desired purified McC. Since the mutations in this study involved only one amino acid and had few effects on the properties of the peptides, we predicted that the separation peaks of the variants should fluctuate around approximately 17 min according to their hydrophobicity. […] The purity of the purified variants was determined by HPLC to be greater than 80% (Table 3).
The lyophilized supernatants were dissolved in deionized water, filtered through 0.22 μm aqueous-phase filter membranes, and purified by high-performance liquid chromatography (HPLC, Agilent Technologies Inc., Palo Alto, CA, USA) with C18 column (5 μm 9.4 × 250 mm, Agilent Technologies Inc., Palo Alto, CA, USA). The mobile phase was composed of 0.1% (v/v) trichloroacetic acid (solvent A) and 0.1% (v/v) trichloroacetic acid with 90% (v/v) acetonitrile (solvent B). A linear gradient from 95% A/5% B to 50% A/50% B was used with a flow rate of 1 mL/min, a sample volume of 10 μL, a column temperature of 35 °C, and a detection wavelength of 280 nm. Electrospray ionization mass spectrometry (ESI-MS) was used to compare the McC variant masses with the expected masses. The relationships between the relative abundances and the mass-to-charge ratios (m/z) of the ions were determined to confirm the identities of the experimentally produced McC variants.

E. coli K88 = experiment: microbe, parasite or virus in culture; assay type: cell-based
Protocol: as §1, §2

CSCC[C@H](NC=O)C(=O)NCC(=O)N[C@H](C(=O)NCC(=O)N[C@@H](CC(N)=O)C(=O)N[C@@H](C)C(=O)N[C@@H](CC(=O)O)C(=O)NP(=O)(OCCCN)OC[C@H]1O[C@@H](n2cnc3c(N)ncnc32)[C@H](O)[C@@H]1O)[C@@H](C)O (some centres unmarked) [R2G] (HELM PEPTIDE1{[O=C[*:2]].M.G.T.G.N.A.[NCCCOP(=O)(NC(=O)[C@H](CC(=O)O)N[*:1])OC[C@H]1O[C@@H](n2cnc3c(N)ncnc32)[C@H](O)[C@@H]1O]}$$$$V2.0)
bacteriostatic activity after trypsin treatment, Yej^+rimL^− (Yej^+rimL^− strain [1]): exhibited antibacterial effects
Diameters of the inhibition zones, Trypsin-Untreated Group, Yej^+rimL^− (Yej^+rimL^− strain [1]): 18.86 mm
Diameters of the inhibition zones, Trypsin-Treated Group, Yej^+rimL^− (Yej^+rimL^− strain [1]): 14.15 mm
MIC (Yej^+rimL^− strain [2]): >100 µg/mL
remaining at 3 h [3]: 85.89 ± 0.79%
remaining at 3 h [4]: 45.6 ± 1.31%
Retention Time [5]: 17.253 min

O=C(N[C@H](CO)[C@H](O)c1ccc([N+](=O)[O-])cc1)C(Cl)Cl [Chloramphenicol, reference compound]
zone of inhibition at 0.25 µg/mL (Yej^+rimL^− strain [1]; read-out: Diameters of the inhibition zones, Trypsin-Untreated Group, Yej^+rimL^−): 23.4 mm
Diameters of the inhibition zones, Trypsin-Treated Group, Yej^+rimL^− (Yej^+rimL^− strain [1]): 20.96 mm
zone of inhibition at 0.25 µg/mL (E. coli K88; Escherichia coli, K88, read-out: Diameters of the inhibition zones, Trypsin-Untreated Group, K88): 23.6 mm
Diameters of the inhibition zones, Trypsin-Treated Group, K88 (E. coli K88; supernatant treated with trypsin 50 μg/mL, 37 °C, 3 h, pH 6.8, agar diffusion, 37 °C 24 h, dash = no zone): 22.79 mm

CSCC[C@H](NC=O)C(=O)N[C@@H](CC(=O)O)C(=O)N[C@H](C(=O)NCC(=O)N[C@@H](CC(N)=O)C(=O)N[C@@H](C)C(=O)N[C@@H](CC(=O)O)C(=O)NP(=O)(OCCCN)OC[C@H]1O[C@@H](n2cnc3c(N)ncnc32)[C@H](O)[C@@H]1O)[C@@H](C)O (some centres unmarked) [R2D] (HELM PEPTIDE1{[O=C[*:2]].M.D.T.G.N.A.[NCCCOP(=O)(NC(=O)[C@H](CC(=O)O)N[*:1])OC[C@H]1O[C@@H](n2cnc3c(N)ncnc32)[C@H](O)[C@@H]1O]}$$$$V2.0)
bacteriostatic activity after trypsin treatment, Yej^+rimL^− (Yej^+rimL^− strain [1]): exhibited antibacterial effects
Diameters of the inhibition zones, Trypsin-Untreated Group, Yej^+rimL^− (Yej^+rimL^− strain [1]): 17.71 mm
Diameters of the inhibition zones, Trypsin-Treated Group, Yej^+rimL^− (Yej^+rimL^− strain [1]): 14.11 mm
MIC (Yej^+rimL^− strain [2]): >100 µg/mL
remaining at 3 h [3]: 83.9 ± 1.42%
remaining at 3 h [4]: 42.4 ± 1.07%
Retention Time [5]: 17.625 min

CSCC[C@H](NC=O)C(=O)N[C@@H](CCCCN)C(=O)N[C@H](C(=O)NCC(=O)N[C@@H](CC(N)=O)C(=O)N[C@@H](C)C(=O)N[C@@H](CC(=O)O)C(=O)NP(=O)(OCCCN)OC[C@H]1O[C@@H](n2cnc3c(N)ncnc32)[C@H](O)[C@@H]1O)[C@@H](C)O (some centres unmarked) [R2K] (HELM PEPTIDE1{[O=C[*:2]].M.K.T.G.N.A.[NCCCOP(=O)(NC(=O)[C@H](CC(=O)O)N[*:1])OC[C@H]1O[C@@H](n2cnc3c(N)ncnc32)[C@H](O)[C@@H]1O]}$$$$V2.0)
Diameters of the inhibition zones, Trypsin-Untreated Group, Yej^+rimL^− (Yej^+rimL^− strain [1]): 20.91 mm
Diameters of the inhibition zones, Trypsin-Treated Group, Yej^+rimL^− (Yej^+rimL^− strain [1]): 0 mm
Diameters of the inhibition zones, Trypsin-Untreated Group, K88 (E. coli K88; agar diffusion, 200 μL fermentation supernatant, 1 × 10^5 CFU/mL, 4 °C 1 h then 37 °C 24 h, chloramphenicol 100 μL of 0.25 μg/mL, dash = no zone): 16.95 mm
remaining at 3 h [3]: 87.69 ± 0.68%
remaining at 3 h [4]: 41.4 ± 0.73%
